# Values quoted from earlier work as cited in PubChem BioAssay AID1259409 (Chemical Carcinogenesis Research Information System (CCRIS), 2018).
# Test system: rodent chemically induced tumor inhibition, incidence and multiplicity
# Assay: CCRIS tumor inhibitor studies
# Details: Dose [Inhibitor]: 0, Promoter: NONE USED
compound,measurement,setting,value
CCC1(c2ccccc2)C(=O)NC(=O)NC1=O,"tumour outcome (control, treated, inhibition, significance)","Carcinogen: DIETHYLNITROSAMINE, 55-18-5, 80 MG/KG 1/D FOR 3 D PRIOR TO EACH CARCINOGEN DOSE (STUDY DURATION: 6 MO), Route [Inhibitor]: INTRAPERITONEAL, Species: RAT, Strain/Sex: BD6/FEMALE, Target Tissue: Type of Lesion: ESOPHAGUS: TUMOR, Dose [Carcinogen]: 80 MG/KG BW 1/WK FOR 8 WK","18%, 0%, 100%, not significant"
same,"tumour outcome (control, treated, inhibition, significance)","Carcinogen: DIETHYLNITROSAMINE, 55-18-5, 80 MG/KG 1/D FOR 3 D PRIOR TO EACH CARCINOGEN DOSE (STUDY DURATION: 6 MO), Route [Inhibitor]: INTRAPERITONEAL, Species: RAT, Strain/Sex: BD6/FEMALE, Target Tissue: Type of Lesion: LIVER: TUMOR, Dose [Carcinogen]: 80 MG/KG BW 1/WK FOR 8 WK","82%, 100%, -18%, not significant"
same,"tumour outcome (control, treated, inhibition, significance)","Carcinogen: N-ETHYL-N-NITROSOUREA, 759-73-9, 0.05% IN DRINKING WATER BEGINNING 4 WK POST CARCINOGEN AND CONTINUING FOR STUDY DURATION (STUDY DURATION: 52 WK), Route [Inhibitor]: ORAL, Species: RAT, Strain/Sex: WF/FEMALE, Target Tissue: Type of Lesion: BRAIN: GLIOMA, Dose [Carcinogen]: 5 MG ONCE AT 24 HR OF AGE","7/13 (54%), 1/12 (8%), 85%, p<.05"
same,"tumour outcome (control, treated, inhibition, significance)","Carcinogen: N-ETHYL-N-NITROSOUREA, 759-73-9, 0.05% IN DRINKING WATER BEGINNING 4 WK POST CARCINOGEN AND CONTINUING FOR STUDY DURATION (STUDY DURATION: 52 WK), Route [Inhibitor]: ORAL, Species: RAT, Strain/Sex: WF/MALE, Target Tissue: Type of Lesion: BRAIN: GLIOMA, Dose [Carcinogen]: 5 MG ONCE AT 24 HR OF AGE","3/13 (23%), 1/10 (10%), 56%, not significant"
same,"tumour outcome (control, treated, inhibition, significance)","Carcinogen: N-ETHYL-N-NITROSOUREA, 759-73-9, 0.05% IN DRINKING WATER BEGINNING 4 WK POST CARCINOGEN AND CONTINUING FOR STUDY DURATION (STUDY DURATION: 52 WK), Route [Inhibitor]: ORAL, Species: RAT, Strain/Sex: WF/MALE, Target Tissue: Type of Lesion: MENINGES: TUMOR, Dose [Carcinogen]: 5 MG ONCE AT 24 HR OF AGE","1/13 (8%), 0/10 (0%), 100%, not calculated"
same,"tumour outcome (control, treated, inhibition, significance)","Carcinogen: N-METHYL-N-NITROSOUREA, 684-93-5, 0.05% IN DIET BEGINNING POST CARCINOGEN TREATMENT AND CONTINUING FOR 23 WK (STUDY DURATION: 25 WK), Route [Inhibitor]: ORAL, Species: RAT, Strain/Sex: F344/MALE, Target Tissue: Type of Lesion: FORESTOMACH: PAPILLOMA, Dose [Carcinogen]: 50 MG/KG 4/2 WK","8/17 (47%), 12/18 (67%), -43%, not calculated"
same,"tumour outcome (control, treated, inhibition, significance)","Carcinogen: N-METHYL-N-NITROSOUREA, 684-93-5, 0.05% IN DIET BEGINNING POST CARCINOGEN TREATMENT AND CONTINUING FOR 23 WK (STUDY DURATION: 25 WK), Route [Inhibitor]: ORAL, Species: RAT, Strain/Sex: F344/MALE, Target Tissue: Type of Lesion: FORESTOMACH: SQUAMOUS CELL CARCINOMA, Dose [Carcinogen]: 50 MG/KG 4/2 WK","2/17 (12%), 9/18 (50%), -316%, not calculated"
same,"tumour outcome (control, treated, inhibition, significance)","Carcinogen: N-METHYL-N-NITROSOUREA, 684-93-5, 0.05% IN DIET BEGINNING POST CARCINOGEN TREATMENT AND CONTINUING FOR 23 WK (STUDY DURATION: 25 WK), Route [Inhibitor]: ORAL, Species: RAT, Strain/Sex: F344/MALE, Target Tissue: Type of Lesion: HEMATOPOIETIC SYSTEM: LYMPHOMA OR LEUKEMIA, Dose [Carcinogen]: 50 MG/KG 4/2 WK","3/17 (18%), 5/18 (28%), -56%, not calculated"
same,"tumour outcome (control, treated, inhibition, significance)","Carcinogen: N-METHYL-N-NITROSOUREA, 684-93-5, 0.05% IN DIET BEGINNING POST CARCINOGEN TREATMENT AND CONTINUING FOR 23 WK (STUDY DURATION: 25 WK), Route [Inhibitor]: ORAL, Species: RAT, Strain/Sex: F344/MALE, Target Tissue: Type of Lesion: SMALL INTESTINE: ADENOCARCINOMA, Dose [Carcinogen]: 50 MG/KG 4/2 WK","9/17 (53%), 6/18 (33%), 38%, not calculated"
same,"tumour outcome (control, treated, inhibition, significance)","Carcinogen: N-METHYL-N-NITROSOUREA, 684-93-5, 0.05% IN DIET BEGINNING POST CARCINOGEN TREATMENT AND CONTINUING FOR 23 WK (STUDY DURATION: 25 WK), Route [Inhibitor]: ORAL, Species: RAT, Strain/Sex: F344/MALE, Target Tissue: Type of Lesion: SMALL INTESTINE: ADENOMA, Dose [Carcinogen]: 50 MG/KG 4/2 WK","10/17 (59%), 15/18 (83%), -41%, not calculated"
same,"tumour outcome (control, treated, inhibition, significance)","Carcinogen: N-METHYL-N-NITROSOUREA, 684-93-5, 0.05% IN DIET BEGINNING POST CARCINOGEN TREATMENT AND CONTINUING FOR 23 WK (STUDY DURATION: 25 WK), Route [Inhibitor]: ORAL, Species: RAT, Strain/Sex: F344/MALE, Target Tissue: Type of Lesion: THYROID: ADENOCARCINOMA, Dose [Carcinogen]: 50 MG/KG 4/2 WK","1/17 (6%), 6/18 (33%), -450%, not calculated"
same,"tumour outcome (control, treated, inhibition, significance)","Carcinogen: N-METHYL-N-NITROSOUREA, 684-93-5, 0.05% IN DIET BEGINNING POST CARCINOGEN TREATMENT AND CONTINUING FOR 23 WK (STUDY DURATION: 25 WK), Route [Inhibitor]: ORAL, Species: RAT, Strain/Sex: F344/MALE, Target Tissue: Type of Lesion: THYROID: ADENOMA, Dose [Carcinogen]: 50 MG/KG 4/2 WK","3/17 (18%), 16/18 (89%), -394%, not calculated"
same,"tumour outcome (control, treated, inhibition, significance)","Carcinogen: N-METHYL-N-NITROSOUREA, 684-93-5, 0.05% IN DIET BEGINNING POST CARCINOGEN TREATMENT AND CONTINUING FOR 23 WK (STUDY DURATION: 25 WK), Route [Inhibitor]: ORAL, Species: RAT, Strain/Sex: F344/MALE, Target Tissue: Type of Lesion: TONGUE: PAPILLOMA, Dose [Carcinogen]: 50 MG/KG 4/2 WK","2/17 (12%), 2/18 (11%), 8%, not calculated"
same,"tumour outcome (control, treated, inhibition, significance)","Carcinogen: N-METHYL-N-NITROSOUREA, 684-93-5, 0.05% IN DIET BEGINNING POST CARCINOGEN TREATMENT AND CONTINUING FOR 23 WK (STUDY DURATION: 25 WK), Route [Inhibitor]: ORAL, Species: RAT, Strain/Sex: F344/MALE, Target Tissue: Type of Lesion: TONGUE: SQUAMOUS CELL CARCINOMA, Dose [Carcinogen]: 50 MG/KG 4/2 WK","2/17 (12%), 3/18 (17%), -42%, not calculated"
same,"tumour outcome (control, treated, inhibition, significance)","Carcinogen: N-METHYL-N-NITROSOUREA, 684-93-5, 0.05% IN DIET BEGINNING POST CARCINOGEN TREATMENT AND CONTINUING FOR 23 WK (STUDY DURATION: 25 WK), Route [Inhibitor]: ORAL, Species: RAT, Strain/Sex: F344/MALE, Target Tissue: Type of Lesion: URINARY BLADDER: PAPILLOMA, Dose [Carcinogen]: 50 MG/KG 4/2 WK","2/17 (12%), 1/18 (6%), 50%, not calculated"
same,"tumour outcome (control, treated, inhibition, significance)","0.05% IN DIET FOR 13 WK AFTER WEANING (STUDY DURATION: 13 WK), Route [Inhibitor]: ORAL, Species: MOUSE, Strain/Sex: DDK/FEMALE, Target Tissue: Type of Lesion: LIVER: TUMOR, Dose [Carcinogen]: 40 MG/KG ADMINISTERED TO MOTHERS ON DAY 14 OF GESTATION","2/15 (13%), 1/15 (7%), 46%, p<0.05"
same,"tumour outcome (control, treated, inhibition, significance)","0.05% IN DIET FOR 13 WK AFTER WEANING (STUDY DURATION: 13 WK), Route [Inhibitor]: ORAL, Species: MOUSE, Strain/Sex: DDK/MALE, Target Tissue: Type of Lesion: LIVER: TUMOR, Dose [Carcinogen]: 40 MG/KG ADMINISTERED INTRAPERITONEALLY TO MOTHERS ON DAY 14 OF GESTATION","2/15 (13%), 1/7 (6%), 54%, p<0.05"
same,"tumour outcome (control, treated, inhibition, significance)","0.05% IN DIET FOR 25 WK AFTER WEANING (STUDY DURATION: 25 WK), Route [Inhibitor]: ORAL, Species: MOUSE, Strain/Sex: DDK/MALE, Target Tissue: Type of Lesion: LIVER: TUMOR, Dose [Carcinogen]: 40 MG/KG ADMINISTERED TO MOTHERS ON DAY 14 OF GESTATION","8/15 (53%), 0/18 (0%), 100%, not calculated"
